Laboratory results published in patent US20250032387A1, “A PERSONAL CARE OR PHARMACEUTICAL COMPOSITION” (Conopco, Inc., d/b/a UNILEVER, priority 2021, published 2025).

Test system: Human epidermal keratinocytes
Experiment: in vitro scratch-wound assay (keratinocyte migration)
Type: cell-based
Details: primary human epidermal keratinocytes, 24 h pre-culture with active, 24 h further culture, wound area ratio divided by control (control = 1), active level wt % of medium
Protocol: The migration of epidermal keratinocytes is the basis for skin re-epithelialization during wound healing. The in vitro scratch-wound assay using monolayers of primary human epidermal keratinocytes is a straightforward and effective method to assess the migratory capacity. Human epidermal keratinocytes (lot.: Ep21012001, Biocell) were seeded into 6-well plates, at 4.5×10^5 cells per well and maintained in a 37° C. incubator in an atmosphere of 5% of carbon dioxide in EpiLife™ Keratinocyte Medium until the cells reaching 70 to 80% of confluence in the well. Then, the cells were cultured by fresh medium (as control) or fresh medium supplemented with different actives for 24 hours. The cells were scratched by a […] of pipette tip in an identical manner to simulate the formation of wound, and images for the cells were taken immediately to record the wound. The cells were cultured again by identical fresh medium or fresh medium supplemented with different actives at 37° C. for 24 hours and images for the cells were taken again. The ratio of area before and after the further culture were obtained by using the software Image-pro plus. The relative migration rates for difference actives were calculated by dividing the values of control and were summarized in Table 1.

Compound	Relative migration rate
NC(=O)c1cccnc1 [A, Niacinamide]	0.94
NC(=O)c1cccnc1 [B, Niacinamide]	1.19
NC(=O)c1cccnc1 [C, Niacinamide]	1.08
Lysine carboxymethyl cysteinate	1.15
Lysine carboxymethyl cysteinate [D]	1.04
